Measurements as given in patent US20070032529A1, “Pyrazole compounds and their use as antidiabetes agents” (Japan Tobacco Inc., priority 2005, published 2007).
Structures can show the parent of a compound that is named as a salt.

What follows are molecules tested against T1, recombinant human liver glycogen phosphorylase (Homo sapiens, UniProt P06737) (assay: Measuring liver glycogen phosphorylase activity (forward reaction system, NADPH absorbance at 340 nm)). Conditions: enzyme inhibitory activity with respect to liver glycogen phosphorylase; class symbols.
T1 construct: made in house; host or cells: Sf9 insect cells (crude homogenate, diluted, used as the enzyme solution)
T1 sequence (P06737 1-847): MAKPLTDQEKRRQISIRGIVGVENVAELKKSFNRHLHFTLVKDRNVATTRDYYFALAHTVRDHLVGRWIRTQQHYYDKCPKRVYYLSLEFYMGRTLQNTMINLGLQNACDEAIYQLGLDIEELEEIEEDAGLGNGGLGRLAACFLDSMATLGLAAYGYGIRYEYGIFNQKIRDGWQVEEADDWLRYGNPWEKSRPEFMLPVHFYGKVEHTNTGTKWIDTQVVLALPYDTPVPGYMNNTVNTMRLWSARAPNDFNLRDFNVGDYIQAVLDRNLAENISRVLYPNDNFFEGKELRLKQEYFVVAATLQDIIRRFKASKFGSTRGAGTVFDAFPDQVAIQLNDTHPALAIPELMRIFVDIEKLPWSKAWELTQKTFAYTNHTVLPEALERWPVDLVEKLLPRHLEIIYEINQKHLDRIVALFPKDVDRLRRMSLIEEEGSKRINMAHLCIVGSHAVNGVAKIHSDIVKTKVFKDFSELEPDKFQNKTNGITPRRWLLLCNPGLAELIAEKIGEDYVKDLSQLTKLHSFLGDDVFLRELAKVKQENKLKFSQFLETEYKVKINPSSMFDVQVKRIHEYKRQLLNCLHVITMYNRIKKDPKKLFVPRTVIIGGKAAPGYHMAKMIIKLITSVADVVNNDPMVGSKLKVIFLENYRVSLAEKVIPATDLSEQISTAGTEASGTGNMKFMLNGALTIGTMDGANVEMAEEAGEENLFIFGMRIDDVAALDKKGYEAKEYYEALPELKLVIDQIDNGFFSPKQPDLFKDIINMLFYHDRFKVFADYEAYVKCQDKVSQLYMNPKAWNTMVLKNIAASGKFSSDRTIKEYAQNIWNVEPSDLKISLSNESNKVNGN
Assay type: biochemical
How it was run: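 Compounds in 1% DMSO; activity taken as blank-subtracted 340 nm absorbance change across 75 min at room temperature. Forward reaction: glucose-1-phosphate released from glycogen converted by coupling enzymes, yielding NADPH; enzyme from recombinant Sf9 homogenate, reaction containing glucose, pH 6.8. IC50 from two-point linear interpolation.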
In the case of Cc1ncoc1CNC(=O)c1cc(NC(=O)c2cc(F)c(F)cc2Cl)[nH]n1 [Example 1-2, 5-(2-chloro-4,5-difluoro-benzoylamino)-1H-pyrazole-3-carboxylic acid (4-methyl-oxazol-5-ylmethyl)-amide], the IC50 is reported as under 100 nM.
Molecule Cc1ccnc(C)c1CNC(=O)c1cc(NC(=O)c2cc(F)c(F)cc2Cl)[nH]n1 [Example 1-3-1, 5-(2-chloro-4,5-difluoro-benzoylamino)-1H-pyrazole-3-carboxylic acid (2,4-dimethyl-pyridin-3-ylmethyl)-amide dihydrochloride] has an IC50 of under 100 nM.
Work on COc1ccc(CNC(=O)c2cc(NC(=O)c3cc(F)c(F)cc3Cl)[nH]n2)cn1 [Example 1-12] yielded an IC50 of under 100 nM.
Work on COc1cccc(OC)c1CNC(=O)c1cc(NC(=O)c2cc(F)c(F)cc2Cl)[nH]n1 [Example 1-15] yielded an IC50 of under 100 nM.
Molecule O=C(NCc1cccc(F)c1F)c1cc(NC(=O)c2cc(F)c(F)cc2Cl)[nH]n1 [Example 1-18] has an IC50 of under 100 nM.

Same assay, conditions: figure in brackets (100); read-out: IC50: % value given with (100)
Work on O=C(NC1CCc2ccccc21)c1cc(NC(=O)c2cc(F)c(F)cc2Cl)[nH]n1 (stereo not drawn) [Example 6-41] yielded an inhibition at 0.1 µM of 12.3%.
Work on O=C(NC1Cc2ccccc2C1)c1cc(NC(=O)c2cc(F)c(F)cc2Cl)[nH]n1 [Example 6-42] yielded an inhibition at 0.1 µM of 21.7%.
With CCOC1(C)Nc2ccccc2CN1C(=O)c1cc(NC(=O)c2cc(F)c(F)cc2Cl)[nH]n1 (stereo not drawn) [Example 6-47] the inhibition at 0.1 µM was 41.1%.
With Nc1cc(F)c(F)cc1C(=O)Nc1cc(C(=O)NCc2cccnc2)n[nH]1 [Example 7-11] the inhibition at 0.1 µM was 47.3%.
Molecule CS(=O)(=O)Nc1cc(F)c(F)cc1C(=O)Nc1cc(C(=O)NCc2cccnc2)n[nH]1 [Example 7-12] has an inhibition at 0.1 µM of 8%.
CC(=O)Nc1cc(F)c(F)cc1C(=O)Nc1cc(C(=O)NCc2cccnc2)n[nH]1 [Example 7-13] was tested, and the inhibition at 0.1 µM was 1.9%.
For O=C(NCc1cccnc1)c1cc(NC(=O)c2sc(Cl)c(Cl)c2Cl)[nH]n1 [Example 7-14], the inhibition at 0.1 µM was 4.6%.

Same assay, conditions: figure in brackets (300); read-out: IC50 column: % value printed with (300)
In the case of O=C(NCc1cccnc1)c1cc(NC(=O)c2cc(F)c(Cl)nc2Cl)[nH]n1 [Example 7-5], the inhibition at 0.3 µM is reported as 8.5%.
With O=C(NCc1cccnc1)c1cc(NC(=O)c2sccc2Cl)[nH]n1 [Example 7-7] the inhibition at 0.3 µM was 2.9%.
O=C(Nc1cc(C(=O)NCc2cccnc2)n[nH]1)c1ccccc1 [Example 7-8] gave an inhibition at 0.3 µM of 6.8%.

Same assay, conditions: human liver glycogen phosphorylase; class symbol
CC(=Nc1ccc(CNC(=O)c2cc(NC(=O)c3cc(F)c(F)cc3Cl)[nH]n2)cc1)N(C)C [Example 6-26] was tested, and the IC50 was under 100 nM.
For CCN(C=Nc1ccccc1CNC(=O)c1cc(NC(=O)c2cc(F)c(F)cc2Cl)[nH]n1)CC [Example 6-27], the IC50 was under 100 nM.
With CCN(C=Nc1cccc(CNC(=O)c2cc(NC(=O)c3cc(F)c(F)cc3Cl)[nH]n2)c1)CC [Example 6-28] the IC50 was under 100 nM.
In the case of CCN(C=Nc1ccc(CNC(=O)c2cc(NC(=O)c3cc(F)c(F)cc3Cl)[nH]n2)cc1)CC [Example 6-29], the IC50 is reported as under 100 nM.
CC(=N)Nc1ccccc1CNC(=O)c1cc(NC(=O)c2cc(F)c(F)cc2Cl)[nH]n1 [Example 6-30] gave an IC50 of under 100 nM.
For CC(=N)Nc1cccc(CNC(=O)c2cc(NC(=O)c3cc(F)c(F)cc3Cl)[nH]n2)c1 [Example 6-31], the IC50 was under 100 nM.
Work on CC(=N)Nc1ccc(CNC(=O)c2cc(NC(=O)c3cc(F)c(F)cc3Cl)[nH]n2)cc1 [Example 6-32] yielded an IC50 of under 100 nM.
For N=C(Nc1cccc(CNC(=O)c2cc(NC(=O)c3cc(F)c(F)cc3Cl)[nH]n2)c1)c1ccccc1F [Example 6-34], the IC50 was under 100 nM.
With N=C(Nc1ccc(CNC(=O)c2cc(NC(=O)c3cc(F)c(F)cc3Cl)[nH]n2)cc1)c1ccccc1F [Example 6-35] the IC50 was under 100 nM.
With CN(C)C(=O)Nc1cccc(CNC(=O)c2cc(NC(=O)c3cc(F)c(F)cc3Cl)[nH]n2)c1 [Example 6-36] the IC50 was under 100 nM.
In the case of CN(C)C(=O)Nc1ccc(CNC(=O)c2cc(NC(=O)c3cc(F)c(F)cc3Cl)[nH]n2)cc1 [Example 6-37], the IC50 is reported as under 100 nM.
For Cc1ccc(S(=O)(=O)Nc2ccccc2CNC(=O)c2cc(NC(=O)c3cc(F)c(F)cc3Cl)[nH]n2)cc1 [Example 6-38], the IC50 was under 100 nM.
Work on Nc1cc(F)c(F)cc1CNC(=O)c1cc(NC(=O)c2cc(F)c(F)cc2Cl)[nH]n1 [Example 6-40] yielded an IC50 of under 100 nM.
O=C(Nc1cc(C(=O)N2C=NC3CCCCC3C2)n[nH]1)c1cc(F)c(F)cc1Cl (stereo not drawn) [Example 6-43] showed an IC50 of under 100 nM.
O=C(Nc1cc(C(=O)N2C=Nc3ccccc3C2)n[nH]1)c1cc(F)c(F)cc1Cl [Example 6-44] showed an IC50 of under 100 nM.
Work on O=C(Nc1cc(C(=O)N2C=Nc3cc(F)ccc3C2)n[nH]1)c1cc(F)c(F)cc1Cl [Example 6-45] yielded an IC50 of under 100 nM.
Work on O=C(Nc1cc(C(=O)N2C=Nc3ccc(F)cc3C2)n[nH]1)c1cc(F)c(F)cc1Cl [Example 6-46] yielded an IC50 of under 100 nM.
N/C(=N\O)c1cc(CNC(=O)c2cc(NC(=O)c3cc(F)c(F)cc3Cl)[nH]n2)ccn1 [Example 6-49] showed an IC50 of under 100 nM.
Work on O=C(NCc1ccnc(-c2noc(=O)[nH]2)c1)c1cc(NC(=O)c2cc(F)c(F)cc2Cl)[nH]n1 [Example 6-50] yielded an IC50 of under 100 nM.
With Cc1cc(F)c(F)cc1C(=O)Nc1cc(C(=O)N(C)c2ccc(-c3nnn[nH]3)cc2)n[nH]1 [Example 7-2] the IC50 was under 100 nM.
With O=C(NCc1cccnc1)c1cc(NC(=O)c2ccc(Cl)cc2Cl)[nH]n1 [Example 7-3] the IC50 was under 100 nM.
With Cc1cc(F)c(F)cc1C(=O)Nc1cc(C(=O)NCc2ccnc(C#N)c2)n[nH]1 [Example 7-15] the IC50 was under 100 nM.
With Cc1cc(F)c(F)cc1C(=O)Nc1cc(C(=O)NCc2ccnc(-c3nnn[nH]3)c2)n[nH]1 [Example 7-16] the IC50 was under 100 nM.

What follows are molecules tested on db/db mice (assay: Measuring blood plasma glucose concentration in db/db mice (hypoglycemic effect)). Conditions: db/db mice fasted 4 h, oral administration, plasma glucose 1 and 3 hours after administration, dose 10 mg/kg or less, Dunnett test vs solvent.
Assay type: in vivo
Set-up: key: ++: compounds exhibiting statistically significant hypoglycemic effect at a dose of 10 mg/kg or less; +: compounds exhibiting not significant but obvious hypoglycemic effect at a dose of 10 mg/kg
Procedure: 2. Exemplary Test (2) Method for Measuring Blood Plasma Glucose Concentration
Using db/db mice representing an obesity type of diabetic model were used to examine the effect of compound (1) of the present invention on glucose concentrations in plasma. Plasma glucose concentrations of the db/db mice (9-18 weeks old) were measured, and the mice were divided into groups each of 5 or 8 mice such that there would be no difference in the average value of plasma glucose concentrations. After fasting for four hours, the example compound or the solvent (0.5% methylcellulose) was administered orally to the db/db mice, and plasma glucose concentrations were measured 1 and 3 hours after administration. The analysis of the hypoglycemic effect of the example compound was performed through a statistical test at every hour between the group receiving the solvent and the groups of example compound (Dunnett test).
In the case of O=C(NCc1cccnc1)c1cc(NC(=O)c2cc(F)c(F)cc2Cl)[nH]n1 [Example 1-1-1, 5-(2-chloro-4,5-difluoro-benzoylamino)-1H-pyrazole-3-carboxylic acid (pyridin-3-ylmethyl)-amide dihydrochloride], the “vivo (hypoglycemic effect in db/db mice)” value is reported as “++”.
For Cc1ncoc1CNC(=O)c1cc(NC(=O)c2cc(F)c(F)cc2Cl)[nH]n1 [Example 1-2, 5-(2-chloro-4,5-difluoro-benzoylamino)-1H-pyrazole-3-carboxylic acid (4-methyl-oxazol-5-ylmethyl)-amide], the “vivo (hypoglycemic effect in db/db mice)” value was “++”.
With Cc1ccnc(C)c1CNC(=O)c1cc(NC(=O)c2cc(F)c(F)cc2Cl)[nH]n1 [Example 1-3-1, 5-(2-chloro-4,5-difluoro-benzoylamino)-1H-pyrazole-3-carboxylic acid (2,4-dimethyl-pyridin-3-ylmethyl)-amide dihydrochloride] the “vivo (hypoglycemic effect in db/db mice)” value was “++”.
With COc1cccc(OC)c1CNC(=O)c1cc(NC(=O)c2cc(F)c(F)cc2Cl)[nH]n1 [Example 1-15] the “vivo (hypoglycemic effect in db/db mice)” value was “+”.
In the case of O=C(NCc1cccc(F)c1F)c1cc(NC(=O)c2cc(F)c(F)cc2Cl)[nH]n1 [Example 1-18], the “vivo (hypoglycemic effect in db/db mice)” value is reported as “+”.
In the case of CN(C)c1ccc(CNC(=O)c2cc(NC(=O)c3cc(F)c(F)cc3Cl)[nH]n2)cc1.Cl [Example 3-29], the “vivo (hypoglycemic effect in db/db mice)” value is reported as “+”.
CN(C(=O)c1cc(NC(=O)c2cc(F)c(F)cc2Cl)[nH]n1)c1ccc(C(=O)[O-])cc1.[Na+] [Example 4-2-1, 4-{[5-(2-chloro-4,5-difluoro-benzoylamino)-1H-pyrazole-3-carbonyl]-methyl-amino}-benzoic acid sodium salt] was tested, and the “vivo (hypoglycemic effect in db/db mice)” value was “++”.
For Cc1noc(C)c1CNC(=O)c1cc(NC(=O)c2cc(F)c(F)cc2Cl)[nH]n1.Cl [Example 5-8], the “vivo (hypoglycemic effect in db/db mice)” value was “+”.
For Cc1nn(C)c(C)c1CNC(=O)c1cc(NC(=O)c2cc(F)c(F)cc2Cl)[nH]n1 [Example 5-9], the “vivo (hypoglycemic effect in db/db mice)” value was “+”.
CS(=O)(=O)O.Cc1noc(C)c1CNC(=O)c1cc(NC(=O)c2cc(F)c(F)cc2Cl)[nH]n1 [Example 5-10] was tested, and the “vivo (hypoglycemic effect in db/db mice)” value was “+”.
For COc1cncc(OC)c1CNC(=O)c1cc(NC(=O)c2cc(F)c(F)cc2Cl)[nH]n1 [Example 5-17], the “vivo (hypoglycemic effect in db/db mice)” value was “+”.
With Cl.O=C(NCc1ccc(-c2csnn2)cc1)c1cc(NC(=O)c2cc(F)c(F)cc2Cl)[nH]n1 [Example 5-31] the “vivo (hypoglycemic effect in db/db mice)” value was “+”.
For O=C(NCc1cnccn1)c1cc(NC(=O)c2cc(F)c(F)cc2Cl)[nH]n1 [Example 5-42], the “vivo (hypoglycemic effect in db/db mice)” value was “+”.
For O=C(NCc1ccc(N2CCSCC2)nc1)c1cc(NC(=O)c2cc(F)c(F)cc2Cl)[nH]n1 [Example 5-43], the “vivo (hypoglycemic effect in db/db mice)” value was “+”.
O=C(NCc1ccc(N2CCS(=O)(=O)CC2)nc1)c1cc(NC(=O)c2cc(F)c(F)cc2Cl)[nH]n1 [Example 5-44] was tested, and the “vivo (hypoglycemic effect in db/db mice)” value was “+”.

Same assay, conditions: db/db mice fasted 4 h, oral administration, plasma glucose 1 and 3 hours after administration, dose 10 mg/kg or less, Dunnett test vs solvent; 10 mg/kg
With COc1ccc(CNC(=O)c2cc(NC(=O)c3cc(F)c(F)cc3Cl)[nH]n2)cn1 [Example 1-12] the “vivo (hypoglycemic effect in db/db mice)” value was “++”.
